According to patent publication US12503438B2, “Compounds for the treatment of kinase-dependent disorders” (Exelixis, Inc., priority 2019, dated 2025):

Target: T1, Mer (Homo sapiens, UniProt Q12866)
T1 construct: host or cells: 293A cells (Thermo Fisher #R70507)
T1 sequence (Q12866 21-999): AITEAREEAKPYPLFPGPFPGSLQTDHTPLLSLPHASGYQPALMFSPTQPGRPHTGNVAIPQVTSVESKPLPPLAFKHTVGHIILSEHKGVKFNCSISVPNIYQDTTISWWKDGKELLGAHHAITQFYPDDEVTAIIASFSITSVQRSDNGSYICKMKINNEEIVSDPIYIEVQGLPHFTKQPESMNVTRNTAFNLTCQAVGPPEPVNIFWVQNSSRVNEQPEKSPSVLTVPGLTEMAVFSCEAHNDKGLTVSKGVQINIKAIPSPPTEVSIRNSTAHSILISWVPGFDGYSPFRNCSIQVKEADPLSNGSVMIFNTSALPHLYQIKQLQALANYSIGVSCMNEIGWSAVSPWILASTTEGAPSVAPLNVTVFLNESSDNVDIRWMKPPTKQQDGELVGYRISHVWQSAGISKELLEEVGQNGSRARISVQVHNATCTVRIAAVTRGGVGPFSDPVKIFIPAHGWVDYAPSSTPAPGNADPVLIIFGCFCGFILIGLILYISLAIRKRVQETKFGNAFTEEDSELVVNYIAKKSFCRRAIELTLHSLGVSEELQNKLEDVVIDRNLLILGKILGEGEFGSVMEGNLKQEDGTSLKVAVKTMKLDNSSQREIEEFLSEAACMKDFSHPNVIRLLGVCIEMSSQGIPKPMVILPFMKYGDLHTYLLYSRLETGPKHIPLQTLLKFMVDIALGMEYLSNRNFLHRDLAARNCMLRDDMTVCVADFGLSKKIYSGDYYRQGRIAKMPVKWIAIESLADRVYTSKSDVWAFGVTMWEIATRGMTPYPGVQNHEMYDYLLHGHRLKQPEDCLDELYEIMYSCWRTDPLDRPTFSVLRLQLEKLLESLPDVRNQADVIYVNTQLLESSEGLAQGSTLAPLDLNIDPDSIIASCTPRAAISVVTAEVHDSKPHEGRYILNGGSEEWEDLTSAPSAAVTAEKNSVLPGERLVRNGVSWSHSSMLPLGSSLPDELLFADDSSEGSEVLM
Assay: Mer autophosphorylation ELISA in transient transfected 293A cells
Type: cell-based
Conditions: cellular activity; MERTK-transfected 293A cells, phospho-Mer ELISA
Description: 293A cells (Thermo Fisher #R70507) were seeded at 1.5×10^6 cells/well onto 100 mm dish (Greiner #664169), in DMEM (Thermo Fisher #11995-040) containing 10% FBS (Thermo Fisher #26140-079), 1% MEM NEAA (Thermo Fisher #11140-050), 1% GlutaMax (Thermo Fisher #35050-061), and 1% Penicillin Streptomycin (Thermo Fisher #15140-122). 293A cells were incubated at 37° C., 5% CO2 for 24 h and then transfected with 6 μg MERTK DNA (Genecopoeia #EX-Z8208-M02) using TransIT LT1 transfection reagent (Mirus-Bio #MIR2305). After 24 h incubation, the transfected 293A cells were seeded at 1×10^5 cells/well onto 96-well plates (Corning #3904) in DMEM growth medium overnight. Test compounds were serially diluted to produce an 8-point dose curve in fresh serum-free medium to a final concentration of 0.3% DMSO (vehicle) and added to the cells and incubated for 1 h. Cells were then immediately lysed with 150 μL of cold 1× lysis buffer [20 mM Tris, 137 mM sodium chloride, 2 mM EDTA, 10% glycerol, 1% NP-40 alternative, 1 mM activated sodium orthovanadate, 1 mM PefaBloc SC (Sigma-Aldrich #11429868001), protease/phosphatase inhibitor tablet (Thermo Fisher #A32959)]. Lysates were clarified by centrifugation and 50 μL/well added into the human phospho-Mer DuoSet IC ELISA (R&D Systems #DYC2579-2). Assay was performed according to manufacturer's instructions and sample phospho-Mer concentrations were extrapolated using human phospho-Mer control (R&D Systems #841793) as a standard. Positive control wells (100% activity) contained DMSO-treated cell lysates. Negative control wells (0% activity) contained reference inhibitor-treated cell lysates. IC50 values were calculated by nonlinear regression analysis using a 4-parameter logistic curve fit in ActivityBase XE (IDBS).

SMILES	IC50 [nM]
COCCn1cc(-c2ccc3c(Oc4ccc(NC(=O)C5(C(=O)Nc6ccc(F)cc6)CC5)cc4)ccnc3c2)cn1 [Compound 10, 1-N′-(4-Fluorophenyl)-1-N-[4-[7-[1-(2-methoxyethyl)pyrazol-4-yl]quinolin-4-yl]oxyphenyl]cyclopropane-1,1-dicarboxamide]	≤ 10
Cn1cc(-c2ccc3c(Oc4ccc(NC(=O)C5(C(=O)Nc6ccc(F)cc6)CC5)cc4)ccnc3c2)cn1 [Compound 11, 1-N′-(4-Fluorophenyl)-1-N-[4-[7-(1-methylpyrazol-4-yl)quinolin-4-yl]oxyphenyl]cyclopropane-1,1-dicarboxamide]	≤ 10
O=C(Nc1ccc(F)cc1)C1(C(=O)Nc2ccc(Oc3ccnc4cc(-c5cnn(C(F)(F)F)c5)ccc34)cc2)CC1 [Compound 12, 1-N′-(4-Fluorophenyl)-1-N-[4-[7-[1-(trifluoromethyl)pyrazol-4-yl]quinolin-4-yl]oxyphenyl]cyclopropane-1,1-dicarboxamide]	100 to 300
O=C(Nc1ccc(F)cc1)C1(C(=O)Nc2ccc(Oc3ccnc4cc(-c5cnn(C(F)F)c5)ccc34)cc2)CC1 [Compound 13, 1-N-[4-[7-[1-(Difluoromethyl)pyrazol-4-yl]quinolin-4-yl]oxyphenyl]-1-N′-(4-fluorophenyl)cyclopropane-1,1-dicarboxamide]	10 to 100
O=C(Nc1ccc(F)cc1)C1(C(=O)Nc2ccc(Oc3ccnc4cc(-c5cnn(CCF)c5)ccc34)cc2)CC1 [Compound 14, 1-N-[4-[7-[1-(2-Fluoroethyl)pyrazol-4-yl]quinolin-4-yl]oxyphenyl]-1-N′-(4-fluorophenyl)cyclopropane-1,1-dicarboxamide]	≤ 10
O=C(Nc1ccc(F)cc1)C1(C(=O)Nc2ccc(Oc3ccnc4cc(-c5cnn(CC(F)F)c5)ccc34)cc2)CC1 [Compound 15, 1-N-[4-[7-[1-(2,2-Difluoroethyl)pyrazol-4-yl]quinolin-4-yl]oxyphenyl]-1-N′-(4-fluorophenyl)cyclopropane-1,1-dicarboxamide]	≤ 10
O=C(Nc1ccc(F)cc1)C1(C(=O)Nc2ccc(Oc3ccnc4cc(-c5cnn(CC(F)(F)F)c5)ccc34)cc2)CC1 [Compound 16, 1-N′-(4-Fluorophenyl)-1-N-[4-[7-[1-(2,2,2-trifluoroethyl)pyrazol-4-yl]quinolin-4-yl]oxyphenyl]cyclopropane-1,1-dicarboxamide]	10 to 100
Cn1ccc(-c2ccc3c(Oc4ccc(NC(=O)C5(C(=O)Nc6ccc(F)cc6)CC5)cc4)ccnc3c2)n1 [Compound 17, 1-N′-(4-Fluorophenyl)-1-N-[4-[7-(1-methylpyrazol-3-yl)quinolin-4-yl]oxyphenyl]cyclopropane-1,1-dicarboxamide]	10 to 100
O=C(Nc1ccc(F)cc1)C1(C(=O)Nc2ccc(Oc3ccnc4cc(-c5cnn(CCO)c5)ccc34)cc2)CC1 [Compound 18, 1-N′-(4-Fluorophenyl)-1-N-[4-[7-[1-(2-hydroxyethyl)pyrazol-4-yl]quinolin-4-yl]oxyphenyl]cyclopropane-1,1-dicarboxamide]	≤ 10
O=C(Nc1ccc(F)cc1)C1(C(=O)Nc2ccc(Oc3ccnc4cc(-c5cnn(CCN6CCOCC6)c5)ccc34)cc2)CC1 [Compound 19, 1-N′-(4-Fluorophenyl)-1-N-[4-[7-[1-(2-morpholin-4-ylethyl)pyrazol-4-yl]quinolin-4-yl]oxyphenyl]cyclopropane-1,1-dicarboxamide]	≤ 10
CCn1cc(-c2ccc3c(Oc4ccc(NC(=O)C5(C(=O)Nc6ccc(F)cc6)CC5)cc4)ccnc3c2)cn1 [Compound 20, 1-N-[4-[7-(1-Ethylpyrazol-4-yl)quinolin-4-yl]oxyphenyl]-1-N′-(4-fluorophenyl)cyclopropane-1,1-dicarboxamide]	≤ 10
CC(C)n1cc(-c2ccc3c(Oc4ccc(NC(=O)C5(C(=O)Nc6ccc(F)cc6)CC5)cc4)ccnc3c2)cn1 [Compound 21, 1-N′-(4-Fluorophenyl)-1-N-[4-[7-(1-propan-2-ylpyrazol-4-yl)quinolin-4-yl]oxyphenyl]cyclopropane-1,1-dicarboxamide]	10 to 100
O=C(Nc1ccc(F)cc1)C1(C(=O)Nc2ccc(Oc3ccnc4cc(-c5cnn(C6CC6)c5)ccc34)cc2)CC1 [Compound 22, 1-N-[4-[7-(1-Cyclopropylpyrazol-4-yl)quinolin-4-yl]oxyphenyl]-1-N′-(4-fluorophenyl)cyclopropane-1,1-dicarboxamide]	≤ 10
CC(C)(C)n1cc(-c2ccc3c(Oc4ccc(NC(=O)C5(C(=O)Nc6ccc(F)cc6)CC5)cc4)ccnc3c2)cn1 [Compound 23, 1-N-[4-[7-(1-tert-Butylpyrazol-4-yl)quinolin-4-yl]oxyphenyl]-1-N′-(4-fluorophenyl)cyclopropane-1,1-dicarboxamide]	10 to 100
O=C(Nc1ccc(F)cc1)C1(C(=O)Nc2ccc(Oc3ccnc4cc(-c5cnn(C6COC6)c5)ccc34)cc2)CC1 [Compound 24, 1-N′-(4-Fluorophenyl)-1-N-[4-[7-[1-(oxetan-3-yl)pyrazol-4-yl]quinolin-4-yl]oxyphenyl]cyclopropane-1,1-dicarboxamide]	≤ 10
O=C(Nc1ccc(F)cc1)C1(C(=O)Nc2ccc(Oc3ccnc4cc(-c5cccnc5)ccc34)cc2)CC1 [Compound 25, 1-N′-(4-Fluorophenyl)-1-N-[4-(7-pyridin-3-ylquinolin-4-yl)oxyphenyl]cyclopropane-1,1-dicarboxamide]	10 to 100
O=C(Nc1ccc(F)cc1)C1(C(=O)Nc2ccc(Oc3ccnc4cc(-c5ccncc5)ccc34)cc2)CC1 [Compound 26, 1-N′-(4-Fluorophenyl)-1-N-[4-(7-pyridin-4-ylquinolin-4-yl)oxyphenyl]cyclopropane-1,1-dicarboxamide]	10 to 100
O=C(Nc1ccc(F)cc1)C1(C(=O)Nc2ccc(Oc3ccnc4cc(-c5cncnc5)ccc34)cc2)CC1 [Compound 27, 1-N′-(4-Fluorophenyl)-1-N-[4-(7-pyrimidin-5-ylquinolin-4-yl)oxyphenyl]cyclopropane-1,1-dicarboxamide]	10 to 100
O=C(Nc1ccc(F)cc1)C1(C(=O)Nc2ccc(Oc3ccnc4cc(-c5ccnnc5)ccc34)cc2)CC1 [Compound 28, 1-N′-(4-Fluorophenyl)-1-N-[4-(7-pyridazin-4-ylquinolin-4-yl)oxyphenyl]cyclopropane-1,1-dicarboxamide]	10 to 100
O=C(Nc1ccc(F)cc1)C1(C(=O)Nc2ccc(Oc3ccnc4cc(-c5cnn6c5CCC6)ccc34)cc2)CC1 [Compound 29, 1-N-[4-[7-(5,6-Dihydro-4H-pyrrolo[1,2-b]pyrazol-3-yl)quinolin-4-yl]oxyphenyl]-1-N′-(4-fluorophenyl)cyclopropane-1,1-dicarboxamide]	10 to 100
Cc1cc(-c2ccc3c(Oc4ccc(NC(=O)C5(C(=O)Nc6ccc(F)cc6)CC5)cc4)ccnc3c2)ccn1 [Compound 30, 1-N′-(4-Fluorophenyl)-1-N-[4-[7-(2-methylpyridin-4-yl)quinolin-4-yl]oxyphenyl]cyclopropane-1,1-dicarboxamide]	10 to 100
COc1cc(-c2ccc3c(Oc4ccc(NC(=O)C5(C(=O)Nc6ccc(F)cc6)CC5)cc4)ccnc3c2)ccn1 [Compound 31, 1-N′-(4-Fluorophenyl)-1-N-[4-[7-(2-methoxypyridin-4-yl)quinolin-4-yl]oxyphenyl]cyclopropane-1,1-dicarboxamide]	10 to 100
